Experiments:
Format in all cases: binding
[1] = tested on: kinases other than LRRK2 (off-target kinases); assay: KiNativ broad kinase profiling in human PBMCs; conditions: 100 nM, human PBMCs
Experimental: (§1) Compounds were shipped to ActivX Technologies (San Diego, US) where LRRK2 target engagement and broad kinase profiling was performed using KiNativ™ procedures. Live cell treatment of human peripheral blood mononuclear cells (PBMCs) at two compound concentrations (1 µM and 0.1 µM) were used to evaluate and compare in vitro target engagement and kinase selectivity, respectively (see Supplementary File 1).

[2] = tested on: T1, ACK; assay: KiNativ profiling in human PBMCs; conditions: Lys1
T1 construct: purchased ActivX Technologies (KiNativ)
Experimental: as §1

[3] = tested on: AKT2,AKT3; assay: KiNativ profiling in human PBMCs; conditions: ATP Loop
Experimental: as §1

[4] = tested on: T2, CDK5; assay: KiNativ profiling in human PBMCs
T2 construct: purchased ActivX Technologies (KiNativ)
Experimental: as §1

[5] = tested on: T3, Erk5; assay: KiNativ profiling in human PBMCs; conditions: Lys2
T3 construct: purchased ActivX Technologies (KiNativ)
Experimental: as §1

[6] = tested on: T4, FRAP; assay: KiNativ profiling in human PBMCs; conditions: ATP
T4 construct: purchased ActivX Technologies (KiNativ)
Experimental: as §1

[7] = tested on: T5, GSK3A; assay: KiNativ profiling in human PBMCs; conditions: Lys2
T5 construct: purchased ActivX Technologies (KiNativ)
Experimental: as §1

[8] = tested on: T6, GSK3B; assay: KiNativ profiling in human PBMCs; conditions: Lys2
T6 construct: purchased ActivX Technologies (KiNativ)
Experimental: as §1

[9] = tested on: T7, HCK; assay: KiNativ profiling in human PBMCs; conditions: Activation Loop
T7 construct: purchased ActivX Technologies (KiNativ)
Experimental: as §1

[10] = tested on: T8, IRAK3; assay: KiNativ profiling in human PBMCs; conditions: Lys1
T8 construct: purchased ActivX Technologies (KiNativ)
Experimental: as §1

[11] = tested on: T9, JAK1 domain1; assay: KiNativ profiling in human PBMCs; conditions: Other
T9 construct: JAK1 domain1; purchased ActivX Technologies (KiNativ)
Experimental: as §1

[12] = tested on: JNK1,JNK2,JNK3; assay: KiNativ profiling in human PBMCs; conditions: Lys2
Experimental: as §1

[13] = tested on: T10, MAP2K3; assay: KiNativ profiling in human PBMCs
T10 construct: purchased ActivX Technologies (KiNativ)
Experimental: as §1

[14] = tested on: T11, MAP2K4; assay: KiNativ profiling in human PBMCs; conditions: 1µM; Lys2
T11 construct: purchased ActivX Technologies (KiNativ)
Experimental: as §1

[15] = tested on: T12, MAP2K7; assay: KiNativ profiling in human PBMCs; conditions: Lys2
T12 construct: purchased ActivX Technologies (KiNativ)
Experimental: as §1

[16] = tested on: T13, MAP3K5; assay: KiNativ profiling in human PBMCs; conditions: Lys2
T13 construct: purchased ActivX Technologies (KiNativ)
Experimental: as §1

[17] = tested on: T14, MLKL; assay: KiNativ profiling in human PBMCs; conditions: Lys1
T14 construct: purchased ActivX Technologies (KiNativ)
Experimental: as §1

[18] = tested on: MST1,MST2; assay: KiNativ profiling in human PBMCs; conditions: Lys2
Experimental: as §1

[19] = tested on: T15, MST2; assay: KiNativ profiling in human PBMCs; conditions: 1µM; Lys1
T15 construct: purchased ActivX Technologies (KiNativ)
Experimental: as §1

[20] = tested on: T16, PAN3; assay: KiNativ profiling in human PBMCs; conditions: Protein Kinase Domain
T16 construct: purchased ActivX Technologies (KiNativ)
Experimental: as §1

[21] = tested on: T17, PIK3CG; assay: KiNativ profiling in human PBMCs; conditions: ATP
T17 construct: purchased ActivX Technologies (KiNativ)
Experimental: as §1

[22] = tested on: T18, PIP4K2A; assay: KiNativ profiling in human PBMCs; conditions: ATP
T18 construct: purchased ActivX Technologies (KiNativ)
Experimental: as §1

[23] = tested on: T19, PKD2; assay: KiNativ profiling in human PBMCs; conditions: Lys1
T19 construct: purchased ActivX Technologies (KiNativ)
Experimental: as §1

[24] = tested on: T20, PYK2; assay: KiNativ profiling in human PBMCs; conditions: Lys1
T20 construct: purchased ActivX Technologies (KiNativ)
Experimental: as §1

[25] = tested on: T21, QSK; assay: KiNativ profiling in human PBMCs; conditions: Lys1
T21 construct: purchased ActivX Technologies (KiNativ)
Experimental: as §1

[26] = tested on: T22, RSK1 domain1; assay: KiNativ profiling in human PBMCs
T22 construct: RSK1 domain1; purchased ActivX Technologies (KiNativ)
Experimental: as §1

[27] = tested on: T23, RSK2 domain2; assay: KiNativ profiling in human PBMCs; conditions: Lys2
T23 construct: RSK2 domain2; purchased ActivX Technologies (KiNativ)
Experimental: as §1

[28] = tested on: T24, SLK; assay: KiNativ profiling in human PBMCs
T24 construct: purchased ActivX Technologies (KiNativ)
Experimental: as §1

[29] = tested on: T25, SNRK; assay: KiNativ profiling in human PBMCs; conditions: Lys2
T25 construct: purchased ActivX Technologies (KiNativ)
Experimental: as §1

[30] = tested on: T26, STLK3; assay: KiNativ profiling in human PBMCs; conditions: Lys2
T26 construct: purchased ActivX Technologies (KiNativ)
Experimental: as §1

[31] = tested on: T27, TBK1; assay: KiNativ profiling in human PBMCs; conditions: Lys1
T27 construct: purchased ActivX Technologies (KiNativ)
Experimental: as §1

[32] = tested on: T28, ULK3; assay: KiNativ profiling in human PBMCs
T28 construct: purchased ActivX Technologies (KiNativ)
Experimental: as §1

[33] = tested on: Wnk1,Wnk2,Wnk3; assay: KiNativ profiling in human PBMCs; conditions: Lys2
Experimental: as §1

[34] = tested on: Wnk1,Wnk2,Wnk4; assay: KiNativ profiling in human PBMCs; conditions: Activation Loop
Experimental: as §1

[35] = tested on: T29, ZAK; assay: KiNativ profiling in human PBMCs; conditions: Lys1
T29 construct: purchased ActivX Technologies (KiNativ)
Experimental: as §1

[36] = tested on: T30, p38a; assay: KiNativ profiling in human PBMCs
T30 construct: purchased ActivX Technologies (KiNativ)
Experimental: as §1

[37] = tested on: T31, smMLCK; assay: KiNativ profiling in human PBMCs
T31 construct: purchased ActivX Technologies (KiNativ)
Experimental: as §1

`Cc1cccc(-c2cc(Nc3ccn(C)n3)nc3[nH]cc(C#N)c23)c1` [Lu AF58786] was tested, and the “inhibition of other kinases” value [1] was “no inhibition”, the Inhibition ([2]; 0.1µM) was -14.9% and the Inhibition ([2]; 1µM) was -10.3%. It also gave an Inhibition ([3]; 0.1µM) of -0.7%, an Inhibition ([3]; 1µM) of -7.3% and an Inhibition ([4]; 0.1µM, Lys1) of 15.8%. For the same compound, the Inhibition ([4]; 0.1µM, Lys2) was 2.3%, the Inhibition ([4]; 1µM, Lys1) was 17.6% and the Inhibition ([4]; 1µM, Lys2) was 2.5%. The Inhibition ([5]; 0.1µM) was 2.1%, the Inhibition ([5]; 1µM) was 10.9% and the Inhibition ([6]; 0.1µM) was 5.2%. It also gave an Inhibition ([6]; 1µM) of -3.4%, an Inhibition ([7]; 0.1µM) of 13.7% and an Inhibition ([7]; 1µM) of 27.3%. It also gave an Inhibition ([8]; 0.1µM) of 9.9%, an Inhibition ([8]; 1µM) of 21.4% and an Inhibition ([9]; 0.1µM) of -0.451%. It also gave an Inhibition ([9]; 1µM) of -12.8%, an Inhibition ([10]; 0.1µM) of -25.6% and an Inhibition ([10]; 1µM) of 17.0%. It also gave an Inhibition ([11]; 0.1 µM) of 19.3%, an Inhibition ([11]; 1 µM) of 55.0% and an Inhibition ([12]; 0.1µM) of 30.2%. For the same compound, the Inhibition ([12]; 1µM) was 71.2%, the Inhibition ([13]; 0.1µM, Lys1) was -31.6% and the Inhibition ([13]; 0.1µM, Lys2) was -1.9%. It also gave an Inhibition ([13]; 1µM, Lys1) of -37.3%, an Inhibition ([13]; 1µM, Lys2) of 0.27% and an Inhibition [14] of -0.124%. It also gave an Inhibition ([15]; 0.1µM) of 18.1%, an Inhibition ([15]; 1µM) of -7.3% and an Inhibition ([16]; 0.1µM) of 4.3%. It also gave an Inhibition ([16]; 1µM) of -3.2%, an Inhibition ([17]; 0.1µM) of -7.9% and an Inhibition ([17]; 1µM) of -7.5%. The Inhibition ([18]; 0.1µM) was 6.3%, the Inhibition ([18]; 1µM) was 4.8% and the Inhibition [19] was 11.8%. The Inhibition ([20]; 0.1µM) was -11.9%, the Inhibition ([20]; 1µM) was -9.9% and the Inhibition ([21]; 0.1µM) was 8.8%. For the same compound, the Inhibition ([21]; 1µM) was 2.1%, the Inhibition ([22]; 0.1µM) was -4.0% and the Inhibition ([22]; 1µM) was -14.7%. It also gave an Inhibition ([23]; 0.1µM) of 14.5%, an Inhibition ([23]; 1µM) of 15.3% and an Inhibition ([24]; 0.1µM) of -16.3%. The Inhibition ([24]; 1µM) was -2.7%, the Inhibition ([25]; 0.1µM) was 15.6% and the Inhibition ([25]; 1µM) was 28.4%. It also gave an Inhibition ([26]; 0.1µM, Activation Loop) of 8.7%, an Inhibition ([26]; 0.1µM, Lys2) of -0.654% and an Inhibition ([26]; 1µM, Activation Loop) of 18.4%. The Inhibition ([26]; 1µM, Lys2) was 12.8%, the Inhibition ([27]; 0.1µM) was -3.4% and the Inhibition ([27]; 1µM) was 2.8%. For the same compound, the Inhibition ([28]; 0.1µM, Lys1) was -13.3%, the Inhibition ([28]; 0.1µM, Lys2) was 8.0% and the Inhibition ([28]; 1µM, Lys1) was 25.5%. The Inhibition ([28]; 1µM, Lys2) was -7.2%, the Inhibition ([29]; 0.1µM) was 22.5% and the Inhibition ([29]; 1µM) was 15.1%. For the same compound, the Inhibition ([30]; 0.1µM) was 22.4%, the Inhibition ([30]; 1µM) was -36.2% and the Inhibition ([31]; 0.1µM) was 10.1%. For the same compound, the Inhibition ([31]; 1µM) was 26.3%, the Inhibition ([32]; 0.1µM, Lys1) was 3.2% and the Inhibition ([32]; 0.1µM, Lys2) was -16.6%. It also gave an Inhibition ([32]; 1µM, Lys1) of 2.2%, an Inhibition ([32]; 1µM, Lys2) of -15.6% and an Inhibition ([33]; 0.1µM) of 10.5%. For the same compound, the Inhibition ([33]; 1µM) was -5.4%, the Inhibition ([34]; 0.1µM) was 0.9% and the Inhibition ([34]; 1µM) was -6.6%. The Inhibition ([35]; 0.1µM) was 18.8%, the Inhibition ([35]; 1µM) was 11.6% and the Inhibition ([36]; 0.1µM, Lys2) was 0.7%. The Inhibition ([36]; 0.1 µM, Other) was -1.7%, the Inhibition ([36]; 1µM, Lys2) was -4.6% and the Inhibition ([36]; 1 µM, Other) was -7.7%. It also gave an Inhibition ([37]; 0.1µM, Lys1) of 1.6%, an Inhibition ([37]; 0.1µM, Lys2) of 3.0% and an Inhibition ([37]; 1µM, Lys1) of 18.7%. For the same compound, the Inhibition ([37]; 1µM, Lys2) was -2.1%.

Source: publication PMC5578959, “Selective LRRK2 kinase inhibition reduces phosphorylation of endogenous Rab10 and Rab12 in human peripheral mononuclear blood cells” (Scientific Reports, 2017)
